Measurements as given in patent publication US20260193264A1, “BENZOYPARAZINE PYRAZINES AND THEIR USES” (FOGHORN THERAPEUTICS INC., priority 2022, published 2026).

Key:
[1] = molecular target: T1, HiBiT-BRM fusion protein in stable HeLa cell line (Homo sapiens, UniProt P51531); experiment: HiBiT-BRM cell-based degradation assay (Nano-Glo HiBiT Lytic Detection, 24 h); parameters: DC50: scale not given here; settings: HeLa HiBiT-BRM cells; for DC50: read-out: BRM HiBit Degradation IC50; for BRM HiBit Degradation Maximum (%): top dose 30 μM
T1 construct: expressed in transfected cells
T1 sequence (P51531 whole entry, the tested form may be a part): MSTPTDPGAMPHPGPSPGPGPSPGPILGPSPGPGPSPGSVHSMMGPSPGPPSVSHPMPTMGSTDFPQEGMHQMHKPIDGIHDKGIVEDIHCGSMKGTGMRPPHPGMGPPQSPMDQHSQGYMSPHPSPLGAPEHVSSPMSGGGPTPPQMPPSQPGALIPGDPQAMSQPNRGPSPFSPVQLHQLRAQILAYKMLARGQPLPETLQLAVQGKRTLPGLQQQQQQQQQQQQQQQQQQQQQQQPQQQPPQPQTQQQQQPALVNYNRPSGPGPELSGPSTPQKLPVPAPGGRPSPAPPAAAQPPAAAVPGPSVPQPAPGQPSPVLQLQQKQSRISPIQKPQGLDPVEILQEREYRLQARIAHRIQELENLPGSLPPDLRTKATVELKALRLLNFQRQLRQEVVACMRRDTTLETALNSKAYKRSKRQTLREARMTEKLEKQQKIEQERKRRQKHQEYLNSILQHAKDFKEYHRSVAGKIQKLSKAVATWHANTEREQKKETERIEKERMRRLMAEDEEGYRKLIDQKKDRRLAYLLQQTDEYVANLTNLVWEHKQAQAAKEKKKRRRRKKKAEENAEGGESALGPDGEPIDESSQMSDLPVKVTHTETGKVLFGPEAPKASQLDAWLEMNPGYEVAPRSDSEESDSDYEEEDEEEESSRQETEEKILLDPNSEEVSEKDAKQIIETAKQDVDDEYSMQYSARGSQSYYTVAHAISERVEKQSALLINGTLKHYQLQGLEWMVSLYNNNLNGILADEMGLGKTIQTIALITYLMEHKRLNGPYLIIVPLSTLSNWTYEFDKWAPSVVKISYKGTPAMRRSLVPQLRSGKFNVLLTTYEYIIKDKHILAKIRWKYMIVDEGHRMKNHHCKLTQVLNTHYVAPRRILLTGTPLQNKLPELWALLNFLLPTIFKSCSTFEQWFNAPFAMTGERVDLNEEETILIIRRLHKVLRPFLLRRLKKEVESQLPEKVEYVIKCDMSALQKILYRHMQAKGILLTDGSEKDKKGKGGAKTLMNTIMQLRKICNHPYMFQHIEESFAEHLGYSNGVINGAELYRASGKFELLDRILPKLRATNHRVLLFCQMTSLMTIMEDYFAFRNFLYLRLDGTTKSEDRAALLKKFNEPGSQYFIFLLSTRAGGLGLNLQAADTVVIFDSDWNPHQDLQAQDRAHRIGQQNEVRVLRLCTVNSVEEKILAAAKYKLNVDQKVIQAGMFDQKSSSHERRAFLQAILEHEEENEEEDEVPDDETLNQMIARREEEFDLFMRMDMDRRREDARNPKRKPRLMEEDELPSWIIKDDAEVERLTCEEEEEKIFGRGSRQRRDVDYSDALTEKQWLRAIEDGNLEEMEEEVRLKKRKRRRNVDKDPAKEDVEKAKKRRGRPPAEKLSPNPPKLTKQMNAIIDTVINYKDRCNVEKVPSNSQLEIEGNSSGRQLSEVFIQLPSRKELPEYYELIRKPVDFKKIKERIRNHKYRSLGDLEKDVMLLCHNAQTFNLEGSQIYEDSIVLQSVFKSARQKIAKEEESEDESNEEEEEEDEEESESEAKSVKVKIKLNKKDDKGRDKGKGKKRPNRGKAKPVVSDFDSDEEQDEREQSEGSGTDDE
Outline: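 HeLa stably expressing HiBiT-BRM; 24 h compound exposure, 10-pt 3-fold dilution from 30 μM final, duplicates. Lytic LgBiT complementation, luminescence. % degradation vs DMSO (HC) and 2 μM known BRM/BRG1 degrader (LC).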

[2] = molecular target: T2, HiBit-BRG1 fusion protein in stable HeLa cell line expressing HiBit-BRG1 and LgBit (Homo sapiens, UniProt P51532); experiment: HiBiT-BRG1 cell-based degradation assay (Nano-Glo HiBiT, 24 h); settings: HeLa HiBit-BRG1/LgBit cells; for DC50: read-out: BRMG1 HiBit Degradation IC50; for Dmax: top dose 30 μM, read-out: BRG1 HiBit Degradation Maximum (%)
T2 construct: expressed in transfected cells
T2 sequence (P51532 whole entry, the tested form may be a part): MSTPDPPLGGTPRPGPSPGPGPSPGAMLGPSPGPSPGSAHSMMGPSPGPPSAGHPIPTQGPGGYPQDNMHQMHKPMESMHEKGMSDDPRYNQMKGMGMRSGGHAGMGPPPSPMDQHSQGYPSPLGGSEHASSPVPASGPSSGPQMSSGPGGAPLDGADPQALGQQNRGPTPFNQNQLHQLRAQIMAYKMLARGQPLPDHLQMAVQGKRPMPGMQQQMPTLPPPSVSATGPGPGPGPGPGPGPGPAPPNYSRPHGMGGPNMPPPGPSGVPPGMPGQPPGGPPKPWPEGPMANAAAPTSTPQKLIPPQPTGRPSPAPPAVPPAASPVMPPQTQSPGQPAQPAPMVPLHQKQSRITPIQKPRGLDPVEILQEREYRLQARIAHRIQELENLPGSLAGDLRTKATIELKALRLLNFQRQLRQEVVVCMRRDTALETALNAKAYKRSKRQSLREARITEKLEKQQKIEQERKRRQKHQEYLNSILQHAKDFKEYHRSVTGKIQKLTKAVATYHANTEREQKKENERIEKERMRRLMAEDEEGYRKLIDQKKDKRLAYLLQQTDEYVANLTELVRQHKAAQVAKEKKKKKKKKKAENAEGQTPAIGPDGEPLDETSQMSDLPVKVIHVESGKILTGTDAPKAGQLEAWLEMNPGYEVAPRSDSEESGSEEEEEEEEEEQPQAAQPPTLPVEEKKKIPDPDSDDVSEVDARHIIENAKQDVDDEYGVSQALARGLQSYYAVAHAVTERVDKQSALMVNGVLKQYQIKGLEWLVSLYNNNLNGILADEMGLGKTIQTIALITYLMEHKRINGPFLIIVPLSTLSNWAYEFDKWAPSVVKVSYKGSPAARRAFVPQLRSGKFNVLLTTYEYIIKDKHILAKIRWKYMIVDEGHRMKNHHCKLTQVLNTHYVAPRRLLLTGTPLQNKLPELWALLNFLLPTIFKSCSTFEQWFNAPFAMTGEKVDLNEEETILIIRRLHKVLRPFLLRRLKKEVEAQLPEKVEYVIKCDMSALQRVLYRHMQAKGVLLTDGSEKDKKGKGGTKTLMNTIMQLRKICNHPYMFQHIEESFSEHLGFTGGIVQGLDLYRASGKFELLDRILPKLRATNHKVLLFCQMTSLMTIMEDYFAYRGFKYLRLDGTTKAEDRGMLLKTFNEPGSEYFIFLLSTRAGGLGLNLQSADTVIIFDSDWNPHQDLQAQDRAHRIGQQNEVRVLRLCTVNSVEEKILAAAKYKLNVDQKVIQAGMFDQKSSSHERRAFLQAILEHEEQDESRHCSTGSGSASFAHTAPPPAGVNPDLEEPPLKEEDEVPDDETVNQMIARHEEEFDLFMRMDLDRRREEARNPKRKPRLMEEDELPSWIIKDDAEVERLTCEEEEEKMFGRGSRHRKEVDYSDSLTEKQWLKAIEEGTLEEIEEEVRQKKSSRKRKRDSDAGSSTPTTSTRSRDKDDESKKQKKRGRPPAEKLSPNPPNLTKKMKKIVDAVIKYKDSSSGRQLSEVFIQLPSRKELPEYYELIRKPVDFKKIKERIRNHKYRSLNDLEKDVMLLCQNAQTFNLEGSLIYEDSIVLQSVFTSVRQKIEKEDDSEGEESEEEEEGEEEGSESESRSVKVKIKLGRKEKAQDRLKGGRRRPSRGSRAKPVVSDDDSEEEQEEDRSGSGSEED
Outline: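 Degradation calculated from NanoBiT luminescence relative to DMSO-treated cells (high) and cells given 2 μM known BRM/BRG1 degrader (low). HeLa cells stably expressing HiBiT-BRG1 plus LgBiT were exposed to compound for 24 h before lytic HiBiT detection.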

| Compound | DC50 [1] | DC50 [2] | Dmax [2] | BRM HiBit Degradation Maximum (%) [1] |
| --- | --- | --- | --- | --- |
| Cc1ncsc1-c1ccc([C@H](C)NC(=O)[C@@H]2C[C@@H](O)CN2C(=O)[C@@H](c2cc(N3CC4(C3)CN(c3cc5nnc(-c6ccccc6O)cc5cc3OC(F)F)C4)no2)C(C)C)cc1 [Compound 206, (2S,4R)-1-((R)-2-(3-(6-(6-(difluoromethoxy)-3-(2-hydroxyphenyl)cinnolin-7-yl)-2,6-diazaspiro[3.3]heptan-2-yl)isoxazol-5-yl)-3-methylbutanoyl)-4-hydroxy-N-((S)-1-(4-(4-methylthiazol-5-yl)phenyl)ethyl)pyrrolidine-2-carboxamide] | < 10 nM | > 10 nM | > 50% | A (“A” indicates maximum degradation ≥75%) |
| CNC(=O)[C@@H]1C[C@@H](O)CN1C(=O)[C@@H](c1cc(N2CC3(C2)CN(c2cc4nnc(-c5ccccc5O)cc4cc2OC)C3)no1)C(C)C [Compound 209, (2S,4R)-4-hydroxy-1-((R)-2-(3-(6-(3-(2-hydroxyphenyl)-6-methoxycinnolin-7-yl)-2,6-diazaspiro[3.3]heptan-2-yl)isoxazol-5-yl)-3-methylbutanoyl)-N-methylpyrrolidine-2-carboxamide] | < 10 nM | – | < 50% | A (“A” indicates maximum degradation ≥75%) |
| Cc1ncsc1-c1ccc([C@H](C)NC(=O)[C@@H]2C[C@@H](O)CN2C(=O)C(C(C)C)n2cc(N3C[C@H]4CN(c5ccc6cc(-c7ccccc7O)nnc6c5)C[C@H]4C3)nn2)cc1 (stereo partly drawn) [Compound 213, (2S,4R)-4-hydroxy-1-(2-(4-((3aR,6aS)-5-(3-(2-hydroxyphenyl)cinnolin-7-yl)hexahydropyrrolo[3,4-c]pyrrol-2(1H)-yl)-1H-1,2,3-triazol-1-yl)-3-methylbutanoyl)-N-((S)-1-(4-(4-methylthiazol-5-yl)phenyl)ethyl)pyrrolidine-2-carboxamide] | < 10 nM | – | < 50% | A (“A” indicates maximum degradation ≥75%) |
| Cc1ncsc1-c1ccc([C@H](C)NC(=O)[C@@H]2C[C@@H](O)CN2C(=O)[C@H](C(C)C)n2cc(N3CCN4CCN(c5ccc6nnc(-c7ccccc7O)cc6c5)CC4C3)nn2)cc1 (stereo partly shown) [Compound 214] | < 10 nM | – | > 50% | A (“A” indicates maximum degradation ≥75%) |
| CC(C)[C@@H](C(=O)N1C[C@H](O)C[C@H]1C(=O)N[C@@H](C)c1ccc(F)cc1)c1cc(N2CC3(C2)CN(c2cc4nnc(-c5ccccc5O)cc4cc2C#N)C3)no1 [Compound 217, (2S,4R)-1-((R)-2-(3-(6-(6-cyano-3-(2-hydroxyphenyl)cinnolin-7-yl)-2,6-diazaspiro[3.3]heptan-2-yl)isoxazol-5-yl)-3-methylbutanoyl)-N-((S)-1-(4-fluorophenyl)ethyl)-4-hydroxypyrrolidine-2-carboxamide] | < 10 nM | – | < 50% | A (“A” indicates maximum degradation ≥75%) |
| COc1cc2cc(-c3ccccc3O)nnc2cc1CN1CC[C@@H](N2CCN(c3cc([C@H](C(=O)N4C[C@H](O)C[C@H]4C(=O)N[C@@H](C)c4ccc(-c5scnc5C)cc4)C(C)C)on3)CC2)C(F)(F)C1 [Compound 218, (2S,4R)-1-[(2R)-2-(3-{4-[(4R)-3,3-difluoro-1-{[3-(2-hydroxyphenyl)-6-methoxycinnolin-7-yl]methyl}piperidin-4-yl]piperazin-1-yl}-1,2-oxazol-5-yl)-3-methylbutanoyl]-4-hydroxy-N-[(1S)-1-[4-(4-methyl-1,3-thiazol-5-yl)phenyl]ethyl]pyrrolidine-2-carboxamide] | < 10 nM | > 10 nM | > 75% | A (“A” indicates maximum degradation ≥75%) |
| COc1cc2cc(-c3ccccc3O)nnc2cc1CN1CC[C@H](N2CCN(c3cc([C@H](C(=O)N4C[C@H](O)C[C@H]4C(=O)N[C@@H](C)c4ccc(-c5scnc5C)cc4)C(C)C)on3)CC2)C(F)(F)C1 [Compound 219, (2S,4R)-1-((R)-2-(3-(4-((S)-3,3-difluoro-1-((3-(2-hydroxyphenyl)-6-methoxycinnolin-7-yl)methyl)piperidin-4-yl)piperazin-1-yl)isoxazol-5-yl)-3-methylbutanoyl)-4-hydroxy-N-((S)-1-(4-(4-methylthiazol-5-yl)phenyl)ethyl)pyrrolidine-2-carboxamide] | < 10 nM | > 10 nM | > 75% | A (“A” indicates maximum degradation ≥75%) |
| Cc1ncsc1-c1ccc([C@H](C)NC(=O)[C@@H]2C[C@@H](O)CN2C(=O)[C@@H](c2cc(N3CC4(CC(c5cc6nnc(-c7ccccc7O)cc6cc5Cl)C4)C3)no2)C(C)C)cc1 [Compound 220, (2S,4R)-1-((R)-2-(3-(6-(6-chloro-3-(2-hydroxyphenyl)cinnolin-7-yl)-2-azaspiro[3.3]heptan-2-yl)isoxazol-5-yl)-3-methylbutanoyl)-4-hydroxy-N-((S)-1-(4-(4-methylthiazol-5-yl)phenyl)ethyl)pyrrolidine-2-carboxamide] | < 10 nM | > 10 nM | > 75% | A (“A” indicates maximum degradation ≥75%) |
| Cc1ncsc1-c1ccc([C@H](C)NC(=O)[C@@H]2C[C@@H](O)CN2C(=O)[C@@H](c2cc(N3CC4(CC(c5cc6nnc(-c7ccccc7O)cc6cc5C#N)C4)C3)no2)C(C)C)cc1 [Compound 222, (2S,4R)-1-((R)-2-(3-(6-(6-cyano-3-(2-hydroxyphenyl)cinnolin-7-yl)-2-azaspiro[3.3]heptan-2-yl)isoxazol-5-yl)-3-methylbutanoyl)-4-hydroxy-N-((S)-1-(4-(4-methylthiazol-5-yl)phenyl)ethyl)pyrrolidine-2-carboxamide] | < 10 nM | – | < 50% | A (“A” indicates maximum degradation ≥75%) |

More lines, main results first:

| DC50 [1] | DC50 [2] | Dmax [2] | Compound | BRM HiBit Degradation Maximum (%) [1] |
| --- | --- | --- | --- | --- |
| < 10 nM | < 10 nM | > 75% | Cc1ncsc1-c1ccc([C@H](C)NC(=O)[C@@H]2C[C@@H](O)CN2C(=O)[C@@H](c2cc(N3CC4(C3)CN(c3cc5nnc(-c6ccccc6O)cc5cc3N(C)C)C4)no2)C(C)C)cc1 [Compound 207, (2S,4R)-1-((R)-2-(3-(6-(6-(dimethylamino)-3-(2-hydroxyphenyl)cinnolin-7-yl)-2,6-diazaspiro[3.3]heptan-2-yl)isoxazol-5-yl)-3-methylbutanoyl)-4-hydroxy-N-((S)-1-(4-(4-methylthiazol-5-yl)phenyl)ethyl)pyrrolidine-2-carboxamide] | A (“A” indicates maximum degradation ≥75%) |
| < 10 nM | > 10 nM | > 75% | Cc1ncsc1-c1ccc([C@H](C)NC(=O)[C@@H]2C[C@@H](O)CN2C(=O)[C@H](C(C)C)n2cc(C3CC4(CC(c5ccc6cc(-c7ccccc7O)nnc6c5)C4)C3)nn2)cc1 (stereo partly drawn) [Compound 208, (2S,4R)-4-hydroxy-1-[(2S)-2-(4-{6-[3-(2-hydroxyphenyl)cinnolin-7-yl]spiro[3.3]heptan-2-yl}-1,2,3-triazol-1-yl)-3-methylbutanoyl]-N-[(1S)-1-[4-(4-methyl-1,3-thiazol-5-yl)phenyl]ethyl]pyrrolidine-2-carboxamide] | A (“A” indicates maximum degradation ≥75%) |
| < 10 nM | – | < 50% | Cc1ncsc1-c1ccc([C@H](C)NC(=O)[C@@H]2C[C@@H](O)CN2C(=O)[C@H](C2CCC2)n2cc(N3CC4(CN(c5ccc6cc(-c7ccccc7O)nnc6c5)C4)C3)nn2)cc1 [Compound 211, (2S,4R)-1-((S)-2-cyclobutyl-2-(4-(6-(3-(2-hydroxyphenyl)cinnolin-7-yl)-2,6-diazaspiro[3.3]heptan-2-yl)-1H-1,2,3-triazol-1-yl)acetyl)-4-hydroxy-N-((S)-1-(4-(4-methylthiazol-5-yl)phenyl)ethyl)pyrrolidine-2-carboxamide] | A (“A” indicates maximum degradation ≥75%) |
| < 10 nM | > 10 nM | > 75% | Cc1ncsc1-c1ccc([C@H](C)NC(=O)[C@@H]2C[C@@H](O)CN2C(=O)[C@H](C(C)C)n2cc(N3CC4(CC(c5ccc6cc(-c7ccccc7O)nnc6c5)C4)C3)nn2)cc1 [Compound 212, (2S,4R)-4-hydroxy-1-((S)-2-(4-(6-(3-(2-hydroxyphenyl)cinnolin-7-yl)-2-azaspiro[3.3]heptan-2-yl)-1H-1,2,3-triazol-1-yl)-3-methylbutanoyl)-N-((S)-1-(4-(4-methylthiazol-5-yl)phenyl)ethyl)pyrrolidine-2-carboxamide] | A (“A” indicates maximum degradation ≥75%) |
| < 10 nM | – | > 50% | C#Cc1ccc(CNC(=O)[C@@H]2C[C@@H](O)CN2C(=O)[C@H](C(C)C)n2cc(N3CC4(CN(c5ccc6cc(-c7ccccc7O)nnc6c5)C4)C3)nn2)c(Cl)c1 [Compound 223, (2S,4R)—N-[(2-chloro-4-ethynylphenyl)methyl]-4-hydroxy-1-[(2S)-2-(4-{6-[3-(2-hydroxyphenyl)cinnolin-7-yl]-2,6-diazaspiro[3.3]heptan-2-yl}-1,2,3-triazol-1-yl)-3-methylbutanoyl]pyrrolidine-2-carboxamide] | A (“A” indicates maximum degradation ≥75%) |
